Entries after “also recorded” stand apart in the source; their conditions may differ. Counter-ions that a name gives are not always drawn.
Tests used:
IKKβ = molecular target: T1, IKKβ (Homo sapiens, UniProt O14920); experiment: K-LISA IKKβ Inhibitor Screening Kit in vitro assay; assay type: biochemical; conditions: 0.1 to 100 μM, incubated with ATP
T1 construct: purchased Calbiochem
T1 sequence (O14920 1-756): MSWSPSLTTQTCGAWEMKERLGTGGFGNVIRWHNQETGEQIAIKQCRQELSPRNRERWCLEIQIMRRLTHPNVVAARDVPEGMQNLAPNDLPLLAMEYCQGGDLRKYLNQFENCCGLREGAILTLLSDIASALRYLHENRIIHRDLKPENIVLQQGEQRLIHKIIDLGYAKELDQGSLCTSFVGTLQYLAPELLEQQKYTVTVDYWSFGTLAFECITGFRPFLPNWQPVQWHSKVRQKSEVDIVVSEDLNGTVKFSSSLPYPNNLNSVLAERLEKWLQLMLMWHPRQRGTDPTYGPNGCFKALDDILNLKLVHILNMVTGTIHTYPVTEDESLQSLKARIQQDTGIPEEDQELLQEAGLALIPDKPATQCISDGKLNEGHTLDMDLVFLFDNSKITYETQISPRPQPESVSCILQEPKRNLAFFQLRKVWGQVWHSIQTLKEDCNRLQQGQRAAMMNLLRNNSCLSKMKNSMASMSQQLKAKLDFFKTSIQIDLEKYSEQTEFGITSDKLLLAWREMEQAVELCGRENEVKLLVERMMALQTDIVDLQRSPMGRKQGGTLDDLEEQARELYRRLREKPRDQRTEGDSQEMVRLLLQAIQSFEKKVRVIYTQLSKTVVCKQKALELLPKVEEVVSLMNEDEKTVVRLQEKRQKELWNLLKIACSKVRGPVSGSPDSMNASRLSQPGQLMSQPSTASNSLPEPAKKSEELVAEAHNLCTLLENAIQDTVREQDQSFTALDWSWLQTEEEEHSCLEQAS
Description: In an attempt to determine whether compound I interferes with ATP binding to the catalytic site, the activity of compound I was measured with fully activated, phosphorylated IKKα or IKKβ. […] However, whether this compound interacts outside of the ATP binding pocket of IKK as an ATP non-competitive inhibitor similar to BMS-345541 is unknown. […] Luciferase activities with TPA induction alone were set at 100% and the relative activities with TPA in the presence of compounds are shown.

[1] = test system: MCF-7, T47D, and MDA-MB-231 breast cancer cell lines; experiment: Matrigel invasion assay; assay type: cell-based
Description: Breast cancer cell lines, MCF-7, T47D, and MDA-MB-231 were used to measure the effect of compound I on TPA-induced invasion activity using Matrigel Invasion Chamber (BD Bioscience, San Jose, Calif.) according to the manufacturer's protocol. Matrigel-coated chambers containing an 8 μm pore size filter were fitted into a 24-well tissue culture plate. Briefly, breast cancer cells (1×10^5 cells/ml) of each cell line were seeded into […] Matrigel-coated chambers with DMSO, TPA, or TPA plus compound I conditions and incubated for 24 hrs. The media wells for each plate contained only standard growth medium. After 24 hrs the non-invading cells were removed from the upper side of the chamber by cotton tipped applicators. The invaded cells on the bottom side were stained using Diff-Quik staining (Dade Behring, Deerfield, Ill.) and photographed. Three independent results were very similar.
In order to evaluate the potential therapeutic activity of the compound, tests for the biological activity of compound I were performed. […] Following anchorage-independent colony induction in TPA-treated cells without or with compound I, colonies were lysed and measured with CyQuant GR Dye to detect DNA by fluorescence plate reader as a measure of colony count. Total transformed colony numbers were calculated from RFU and cell dose curve of JB6 cells. […]

IL-6 mRNA = experiment: Quantitative RT-PCR of endogenous IL-6 mRNA in HEK293 cells; assay type: cell-based, human; conditions: concentrations as low as 2.1 μM, 1 hour pretreatment, TPA 18 hours, normalized by GAPDH
Description: Total RNA was isolated from HEK293 cells after pretreatment with varying compound I and/or TPA stimulation by ToTALLY RNA kit (Ambion, Austin, Tex.), and first-strand cDNA was synthesized from 1 μg of the isolated total RNA using the SuperScript III First-Strand Synthesis System (Invitrogen, Carlsbad, Calif.) with random hexamers, oligonucleotide primers. cDNA was purified by QIAquick PCR purification kit (Qiagen, Valencia, Calif.) according to the manufacturer's manual. Real-time PCR was performed with iQ SYBR Green Supermix (Bio-Rad, Hercules, Calif.) by iQ5 Multicolor RT-PCR detection system (Bio-Rad, Hercules, Calif.). Primers for endogenous human IL-6 were designed by Primer 3 program (http://frodo.wi.mit.edu/). Human glyceraldehyde-3-phosphate dehydrogenase (hGAPDH) was used as a control. The sequences for RT-PCR are as follows:
Inhibition of NFκB transactivation would be expected to result in suppressed expression of genes whose transcription depends on NFκB. Quantitative RT-PCR was used to measure endogenous levels of IL-6 mRNA, transcribed from a gene whose transcription depends on NFκB but not AP-1. […] Plasmids expressing luciferase reporters were driven by promoters for COX-2, uPAR (urokinase-type plasminogen activator receptor), or VEGF. […]

[2] = test system: MCF-7, T47D, and MDA-MB-231 breast cancer cells; experiment: XTT assay in breast cancer cells; assay type: cell-based; conditions: 10 μM
Description: In order to evaluate the potential therapeutic activity of the compound, tests for the biological activity of compound I were performed. The compound is non-toxic to MCF-7, T47D, and MDA-MB-231 breast cancer cells as estimated by XTT assay at 10 μM. To determine the effects of compound I on invasion by breast cancer cell lines, a matrigel invasion assay was used. The levels of phosphorylated IκBα were confirmed in TPA treated ER-positive (MCF-7 and T47D) and ER-negative (MDA-MB-231) breast cancer cell lines and compared the levels to those after pretreatment with compound I. Although induced levels of phosphorylated IκBα varied with the cell line, IκBα phosphorylation was eliminated by compound I treatment in all three breast cancer cell lines. Compound I also produced no effect on the estrogen receptor activity in the ER-positive breast cancer cells using ERE promoter luciferase reporter assay. Invasion capacity of breast cancer cells was increased by TPA stimulation compared to DMSO treated vehicle control. […] Following anchorage-independent colony induction in TPA-treated cells without or with compound I, colonies were lysed and measured with CyQuant GR Dye to detect DNA by fluorescence plate reader as a measure of colony count. Total transformed colony numbers were calculated from RFU and cell dose curve of JB6 cells. […]

- Inhibition of phosphorylation of IκBα peptide substrate catalyzed by IKKβ (IKKβ): no inhibition
Structure (SMILES): Cc1cc(N)ccc1N=Nc1ccc(S(=O)(=O)CCOS(=O)(=O)O)cc1 [compound I, 2-(4-((4-amino-2-methylphenyl)diazenyl)phenylsulfonyl)ethyl hydrogen sulfate]
- Basal invasive activity ([1]; MBA-MB-231 cells): completely inhibited
- TPA-increased invasion ([1]; three breast cancer cell lines, 24 hrs): completely inhibited; also recorded: inhibits
- Part of TPA induction of IL-6 mRNA prevented (IL-6 mRNA): more than half
- Toxicity estimated by XTT assay [2]: non-toxic

From patent US8729053B2, “Nuclear factor kappa B pathway inhibitor composition and use of same” (The United States of America, as represented by the …, priority 2008, dated 2014)
